Here are results for 2 compounds from article PMC11304383 (Molecular Pharmaceutics, 2024).

Converted amounts (≈) assume the structure as drawn. Where two headings read alike, the source gives them in different places.

Usually Cmax stands for the highest concentration seen after dosing. The MRT is a mean duration of stay, worked out from the concentration-time curve. One may read the Tmax as the time from dosing to the highest level. As a reminder, the half-life is how long it takes for the measured level to halve. Low readings indicate rapid decline, high ones slow decline. As usually defined, the thermodynamic solubility is the concentration in solution at equilibrium with solid. The IC50 is the concentration that inhibits the measured activity by half.

Data set [1] is described as follows: Oral pharmacokinetic study. The data set is classed as in vivo, male Wistar rats. The note with it: single oral dose 15 mg/kg. The protocol: Pharmacokinetic studies were conducted by following the CPCSEA guidelines. MAHE-IAEC (IAEC/KMC/24/2020) approved the study. The study utilized a parallel design, with each group comprising 3 male Wistar rats weighing approximately 200 g, with a variation of ±20 g. Prior to treatment, the rats underwent a 12 h fasting period but were allowed access to water. Treatment A involved administering a dose of 15 mg/kg of CRT, suspended in a 0.5% (w/v) carboxyl methyl cellulose (CMC) aqueous solution. Treatment B consisted of a 15 mg/kg equivalent CRT CAMs suspension prepared in a 0.5% (w/v) CMC vehicle. The animals received 1 mL of the suspension orally via oral gavage. The interested readers are directed to the pharmacokinetic study reported by Yarlagadda et al. (2023) for detailed methodology.[38]

Details of data set [2]: method as in doi:10.1021/acs.cgd.7b01027. The settings on record: cited from earlier work.
Data set [3] relates to A549 cells. In words: Cell cycle analysis by flow cytometry (propidium iodide). The data set is classed as cell-based, human. The note with it: individual IC50 concentrations, 48 h. The protocol:
Exponentially growing cells were detached from T-25 cell culture flasks using trypsin and then transferred to sterile Petri plates. The cells were allowed to attach and grow for approximately 24 h. After the attachment period, different treatments were applied to the cells, and the plates were further incubated for 48 h. The media was removed after 48 h of incubation, and the plates were rinsed two times with phosphate buffer. After that, the cells were trypsinized and centrifuged at 4 °C. After centrifugation, the pellet was fixed in 70% ice-cold ethanol for 30 min at 4 °C. The resulting pellet was resuspended in Dulbecco’s phosphate-buffered saline (PBS) to wash the cells. After another round of centrifugation, the supernatant was removed and the pellet was redispersed in a staining solution consisting RNase, propidium iodide, and NP-40. For 20 min, the cell suspension was incubated in the dark at room temperature. The cells were then analyzed with a BD Accuri C6 flow cytometer (BD Biosciences, San Jose, CA, USA).[42]
A general note: A flow cytometer gives signals particle by particle.

Data set [4] in a line: Thermodynamic solubility, shake flask method. The data set is classed as physicochemical. The note with it: phosphate buffer 50 mM pH 6.8, 24 h, 37 °C; read-out: thermodynamic solubility of CRT. The protocol: Excess amounts of CRT and CAMs were added to solubility vials (2 mL) containing the buffer. These vials were then subjected to agitation on an orbital shaker for 24 h at 37 °C and 120 rpm. After this incubation period, the pH of the samples was checked and adjusted if necessary just before centrifugation. Centrifugation was carried out at 37 °C, 10,000 rpm, for 10 min, trailed by the collection of the supernatant and its dilution using the mobile phase. The samples were then analyzed by using the HPLC method described below. This experimental procedure was conducted in triplicate (n = 3).
The Shimadzu Prominence UHPLC with a UV detector was used for the analysis. A GraceSmart Brava BDS-C18 column (250 mm × 4.6 mm × 5 μm) was used for chromatographic separation. The mobile phase was given in a gradient manner with 42:50:8% v/v methanol:25 mM phosphate buffer pH 3.0:ACN for 5 min and 50:50% v/v acetonitrile:25 mM phosphate buffer pH 3.0 for 17 min at a flow rate of 1 mL/min.

The test system of data set [5] is CYP3A. Also noted: method as in PMID 33394101. The settings on record: 33 adult NSCLC patients; cited from earlier work.
Data set [6] has as its system CYP2C9. Also noted: method as in PMID 33394101. The note with it: 33 adult NSCLC patients; cited from earlier work.
The test system of data set [7] is A549 cells. In words: SRB (sulforhodamine B) cytotoxicity assay. The data set is classed as cell-based. The settings on record: Homo sapiens, read-out: IC50 value. The protocol: A cell suspension was made based on cell count, and 5000 cells were seeded per well in a 96-well plate. […] The SRB assay was performed after a 48 h incubation […], and the absorbance at 540 nm was determined using a plate reader.[40]

Data set [8] in a line: Amorphous solubility, solvent quench method. The data set is classed as physicochemical. The note with it: higher in distilled water. The protocol: The amorphous solubility of CRT was measured using the solvent quench method, which employed methanol and HPMC as the solvent and crystallization inhibitor, respectively. […] The detailed amorphous solubility methodology can be found in Shete et al. (2021).[39]

On the set-up of data set [9]: method as in doi:10.1007/s12247-019-09381-9. The settings on record: cited from earlier work.
Data set [10] relates to P-gp. Also noted: method as in doi:10.1016/j.jddst.2022.103431. The settings on record: read-out: IC50 value of NRG for P-gp inhibition; cited from earlier work.
[11] abbreviates: male, Wistar, rat, plasma, n = 3.

Turning to `Cc1cc(Nc2ncc(Cl)c(Nc3ccccc3S(=O)(=O)C(C)C)n2)c(OC(C)C)cc1C1CCNCC1` [CRT, ceritinib], in data set [1] (male, Wistar, rat, plasma, po, 15 mg/kg, n = 3, read-out: Cmax of CRT), the Cmax amounted to 0.173 µg/mL. For the same compound, in data set [1] (setting [11]), the MRT is 20.2 ± 0.75 h, the Tmax came out at 6 h and the half-life was 22.1 h. In addition, the AUC(0-t) in [1] (male, Wistar, rat, plasma, n = 3, 72 h, read-out: AUC0–t of CRT) amounted to 3.58 ± 0.218 µg·h/mL. Besides, the “Cmax of CRT” value in data set [1] (n = 3, 15 mg/kg) was determined as 0.17326 ± 0.00534 µg/mL. Moreover, in [2], the “excess enthalpy of CRT in water” value was -3.53 kJ/mol. Further, in data set [3], the “%G1 (percentage of cells in G0/G1 phase)” value worked out at 47.1% and the “%G2 (percentage of cells in G2/M phase)” value is 23.9%. In addition, in [4], the solubility (thermodynamic) at 24 h came out at 3.3 µg/mL (≈ 5.91 µM). Moreover, in [5], the “enhancement of AUC of midazolam by CRT versus midazolam alone” value is 5.42 fold and the “enhancement of Cmax of midazolam by CRT versus midazolam alone” value is 1.82 fold. Besides, in data set [6], the “improvement of AUC of S-warfarin by CRT” value is given as 56%. The IC50 in data set [7] (A549, 48 h) was determined as 3.53 µM. The “amorphous solubility of CRT, distilled water versus pH 6.8 phosphate buffer” value in data set [8] is “approximately threefold”.

For `C[C@@H]1O[C@@H](O[C@H]2[C@H](Oc3cc(O)c4c(c3)O[C@H](c3ccc(O)cc3)CC4=O)O[C@H](CO)[C@@H](O)[C@@H]2O)[C@H](O)[C@H](O)[C@H]1O` [NRG, naringin], the “glass transition event temperature” value in [9] is 167 °C. Besides, the IC50 was 2400 µM in data set [10] and 162 µM in [7] (A549, SRB, 48 h incubation).
